Assay [1] has as its system Pseudomonas syringae DC3000. Description: DC3000 inoculation of Arabidopsis thaliana leaves applied with 60 nM CAP peptide. It is filed as in vivo. Here is the method: Arabidopsis thaliana leaves applied with water or 60 nM CAP peptide were inoculated with Pseudomonas syringae DC3000.
For assay [2], the system named is Pseudomonas syringae pv tomato DC3000. Kind of assay: DC3000 inoculation of Brassica rapa leaves sprayed with 60 nM CAP peptide. The class given is in vivo. Here is the method: Brassica rapa leaves were sprayed with water or a 60 nM CAP peptide solution in advance, and one day later, inoculated with plant pathogen Pseudomonas syringae pv tomato DC3000 (DC3000). 2 days after infection, DC3000 obtained from leaf fragments cut into 4-mm-diameter circles was diluted, spotted on LB medium containing kanamycin, and incubated at 28° C. for 24 hours.

Assay [3] has as its system genes related to freezing tolerance and drought tolerance. Kind of assay: RNA-seq gene expression after 4 hours immersion in CAP peptide. Conditions: 600 nM, immersion 4 hours, vs water. It is filed as in vivo, Arabidopsis thaliana. Here is the method: RNA of Arabidopsis thaliana immersed in water or a 600 nM CAP peptide solution for 4 hours was extracted, and gene expression was compared by RNA-seq analysis. Network analysis was then performed on genes with increased expression.

Assay [4] relates to Arabidopsis thaliana expressing stem cell marker PLT1-GFP. Description: Stem cell induction in Arabidopsis thaliana roots expressing stem cell marker PLT1-GFP (confocal imaging). The class given is in vivo. The following applies: 600 nM peptide aqueous solution, immersion 2 days. How it is done:
Arabidopsis thaliana roots were treated with CAP peptide ([…]). Arabidopsis thaliana expressing stem cell marker PLT1-GFP was immersed in water or a 600 nM peptide aqueous solution for 2 days, and GFP fluorescent images and bright field images were obtained with a confocal laser microscope.

Assay [5] concerns Arabidopsis thaliana seeds. Kind of assay: Germination of Arabidopsis thaliana seeds harvested 10 years before. It is filed as in vivo. The following applies: seeds immersed in 1, 10 or 100 μM CAP peptide for 2 hours; measured 2 weeks after sowing. Here is the method: Arabidopsis thaliana seeds harvested 10 years before and not naturally germinated were immersed in 0, 1, 10, or 100 μM CAP peptide for 2 hours and then sown. The germination rate was measured 2 weeks later.

Assay [6] concerns genes related to disease resistance. Description: RNA-seq gene expression after 48 hours immersion in CAP peptide. The following applies: 600 nM, immersion 48 hours, vs water. It is filed as in vivo, Arabidopsis thaliana. Here is the method:
RNA of Arabidopsis thaliana immersed in water or a 600 nM CAP peptide solution for 48 hours was extracted, and gene expression was compared by RNA-seq analysis. Network analysis was then performed.

For assay [7], the system named is Cherry tomato Sun Cherry seedlings. Kind of assay: Growth promotion of cherry tomato Sun Cherry seedlings. The following applies: 1 μM CAP peptide sprayed twice (Jul. 21 and July 28); t-test p<0.05. It is filed as in vivo. Here is the method: Cherry tomato Sun Cherry seedlings were purchased, sprayed with 1 μM CAP peptide on Jul. 21, 2021, and then grown in planters in an alley. The second 1 μM CAP peptide treatment was performed on July 28.

Assay [8] concerns Rorippa aquatica. Kind of assay: Agrobacterium transformation of Rorippa aquatica in the presence of CAP peptide. It is filed as in vivo. Conditions: 1 μM CAP peptide mixed with Agrobacterium carrying GFP-TUB6 plasmid. How it is done:
Agrobacterium introduced with a plasmid expressing GFP-TUB6 protein was mixed with CAP peptide to final concentrations of 50 nM, 1 μM, and 10 μM, and transformed into Rorippa aquatica.

The subject of assay [9] is Pseudomonas syringae pv tomato DC3000. Description: DC3000 infection of Arabidopsis thaliana leaves sprayed with 600 nM CAP peptide, bacterial count. It is filed as in vivo. Conditions: leaves sprayed with 600 nM CAP peptide/0.02% Silwet L-77 24 hours before infection; counted 2 days after infection. Here is the method: Next, Arabidopsis thaliana leaves were sprayed with water/0.02% Silwet L-77 (Control) or 600 nM CAP peptide/0.02% Silwet L-77, and 24 hours later, infected with Pseudomonas syringae pv tomato DC3000 (DC3000) with an OD600 of 0.2×10^−3. 2 days later, DC3000 obtained from leaf fragments cut into 4-mm-diameter circles was diluted and spotted on LB medium containing kanamycin. After incubation at 28° C. for 24 hours, the number of bacteria per unit area was counted.

Assay [10] concerns wild-type Arabidopsis thaliana seeds. Kind of assay: Osmotic and drought tolerance: growth of peptide-immersed seeds on excess mannitol- or sorbitol-containing medium. It is filed as in vivo. Here is the method: Next, wild-type Arabidopsis thaliana seeds were immersed in water (Control) or 600 nM CAP peptide for 5 minutes and then grown on an excess mannitol-containing medium. Further, wild-type Arabidopsis thaliana seeds were immersed in water (Control) or 600 nM CAP peptide overnight, and then grown on an excess sorbitol-containing medium.

In assay [11] the test system is Pseudomonas syringae pv tomato DC3000. Kind of assay: Disease tolerance test with CAP6 peptide: DC3000 infection of sprayed Arabidopsis thaliana leaves. It is filed as in vivo. The following applies: 60 nM CAP6 peptide/0.02% Silwet L-77 sprayed 48 hours before infection; counted one day after infection. How it is done:
Multiple types (76 types) of CAP proteins derived from Schlechtendalia chinensis, Caloptilia cecidophora, Borboryctis euryae, Caloptilia ryukyuensis, Rhus javanica, and Arabidopsis thaliana were aligned. From the consensus sequence (FIG. 9), FTQIVW (SEQ ID NO: 21) was determined (hereinafter referred to as “CAP6 peptide”). Then, Arabidopsis thaliana leaves were sprayed with 0.02% Silwet L-77 (Control), 60 nM CAP peptide/0.02% Silwet L-77, or 60 nM CAP6 peptide/0.02% Silwet L-77, and 48 hours later, infected with Pseudomonas syringae pv tomato DC3000 (DC3000) with an OD600 of 0.2×10^−3. One day later, DC3000 obtained from leaf fragments cut into 5-mm-diameter circles was diluted and spotted on LB medium containing kanamycin. 24 hours later, the number of bacteria per unit area was counted.

A value given as a limit tells only on which side of the number the result lay.

“TQVVWKSTTNIGVGILIVNGTV (partial peptide of CAP) [CAP peptide, synthetic peptide from the conserved region of insect CAP (cysteine-rich secretory protein, antigen 5, and pathogenesis-related 1)]”: the “growth of the pathogen” value in assay [1] (4 days after infection) was “significantly inhibited”. For the same substance, in [1] (13 days after infection), the “plant body growth vs water treatment” value is recorded as “grew much larger”. For the same substance, the “seed yield vs water treatment” value in assay [1] (13 days after pathogen infection) is recorded as “yielded more seeds”. Besides, the “freshness after pathogen treatment vs water treatment” value in [2] (60 nM CAP peptide sprayed one day before inoculation) is “freshness was maintained for a longer period of time”. Further, the “inhibition of bacterial growth compared with water treatment” value in assay [2] (60 nM CAP peptide, 2 days after pathogen inoculation) is at least 1000 times. In [3], the “increase in expression of genes related to freezing tolerance and drought tolerance” value is given as at least 2 factor. For the same substance, the “transformation of differentiated cells into stem cells” value in [4] (PLT1-GFP marker) is given as “differentiated cells were transformed into stem cells”. In addition, the “induction of gall-like structure” value in assay [4] (roots) was “induced a gall-like structure”. Also, the “germination rate compared with gibberellin treatment” value in assay [5] is recorded as “much higher germination rate”. Moreover, the “increase in expression of genes related to disease resistance” value in assay [6] lay within 2 to 3 factor. In addition, in [7], the “effect of promoting stem extension compared with CAP-untreated group” value is given as “significantly confirmed”. Moreover, the transformation efficiency result in assay [8] is recorded as “high efficiency transformation”. Besides, the “growth of bacteria after infection” value in assay [9] is given as “suppressed the growth of bacteria”. Further, in assay [10] (600 nM, 5 minutes immersion, high-osmotic pressure conditions), the “root extension on excess mannitol-containing medium vs control” value is “extended more”. In addition, the “root extension on excess sorbitol-containing medium vs control” value in assay [10] (600 nM, overnight immersion, dry conditions) is given as “extended more”. Also, the “growth on excess mannitol-containing medium, mean value” in assay [10] (seeds immersed in 600 nM CAP peptide for 5 minutes, high-osmotic pressure conditions, FIG. 3 upper) is recorded as 11.69 (S.D.=1.55). In addition, in assay [10] (seeds immersed in 600 nM CAP peptide overnight, dry conditions, FIG. 3 lower), the “growth on excess sorbitol-containing medium, mean value” is listed as 7.71 (S.D.=1.39).
Take “FTQIVW (consensus sequence of CAP) [CAP6 peptide]”: the disease tolerance effect result in assay [11] was “a remarkable effect was obtained”.

The values above are taken from patent US20240067682A1, “PEPTIDE HAVING PLANT STEM CELL-INDUCING EFFECT AND PLANT PEST RESISTANCE-INDUCING EFFECT” (KYOTO PREFECTURAL PUBLIC UNIVERSITY CORPORATION, priority 2020, published 2024).
